Assay [1] concerns B16. As to the kind of experiment: Inhibition of alpha-MSH-induced melanin production in mouse B16 cells at 10 uM after 3 days. The assay is classed as functional. The conditions noted are these: B16, 72 h.
The subject of assay [2] is B16. As to the kind of experiment: Inhibition of alpha-MSH-induced melanin production in mouse B16 cells after 3 days. The assay is classed as functional, cell-based. The conditions noted are these: B16, 72 h.

pIC50: −log10 of the molar value.

In the case of `COc1ccc(/C(C)=N/NC(N)=S)cc1`, the inhibition (in general, the percentage by which the read-out fell short of the control) at 10 µM with B16 [1] was over 100%. The pIC50 (in general, the IC50 on a negative log10 scale, so that one unit is a factor of ten) with B16 [2] was 5.57.

In the assay on B16 [1], `CCNC(=S)N/N=C(\CC)c1ccc(C)cc1` had an inhibition at 10 µM of over 100%. The molecule also had a pIC50 in the assay with B16 [2] of 5.72.

In the case of `NC(=S)N/N=C1\CCCc2ccccc21`, the inhibition at 10 µM in the assay on B16 [1] was over 100%. In the assay with B16 [2], this molecule showed a pIC50 of 5.64.

With `CC/C(=N\N=C(\N)S)c1ccc(OC)cc1`, in the assay with B16 [1], the inhibition at 10 µM was over 100%. In the assay with B16 [2], this molecule gave a pIC50 of 5.40.

Molecule `C/C(=N\N=C(/N)S)c1ccccc1` [PHENYL(METHYL)THIOSEMICARBAZONE] returned an inhibition at 10 µM in the assay on B16 [1] of over 100%. Also, the pIC50 in the assay with B16 [2] is 5.64.

`CC/C(=N\NC(N)=S)c1ccc(C)cc1` showed an inhibition at 10 µM with B16 [1] of over 100%. The same molecule had a pIC50 in the assay on B16 [2] of 5.59.

The molecule `C/C(=N\NC(N)=S)c1ccc(C)cc1` registered an inhibition at 10 µM in the assay on B16 [1] of over 100%. The same molecule showed a pIC50 in the assay on B16 [2] of 6.08.

In the assay with B16 [1], `C/C(=N\NC(N)=S)c1cccs1` yielded an inhibition at 10 µM of 82%. Also, the pIC50 with B16 [2] was 5.21.

For `CC/C(=N\NC(=S)NC)c1ccc(C)cc1`, the inhibition at 10 µM in the assay with B16 [1] was over 100%. Besides, the pIC50 in the assay with B16 [2] was 5.70.

Molecule `CC/C(=N\N=C(\N)S)c1ccc(Br)cc1` showed an inhibition at 10 µM in the assay on B16 [1] of over 100%. This molecule also gave a pIC50 in the assay on B16 [2] of 5.70.

For `CC(C)/C(=N\NC(N)=S)c1ccccc1`, the inhibition at 10 µM in the assay with B16 [1] is 96%. This molecule gave a negative-log IC50 (pIC50) in the assay on B16 [2] of 5.43.

For the molecule `CCC(NNC(N)=S)c1ccc(C)cc1` (centres undefined), the inhibition at 10 µM with B16 [1] is over 100%. In the assay on B16 [2], this molecule showed a pIC50 of 5.41.

Take `CC/C(=N\NC(=S)Nc1ccccc1)c1ccc(C)cc1`: the inhibition at 10 µM in the assay with B16 [1] is over 100%. Besides, the pIC50 in the assay with B16 [2] is 6.10.

On to `NC(=S)NN=C(c1ccccc1)c1ccccc1` [BENZOPHENONE-THIOSEMICARBAZONE], for which the inhibition at 10 µM in the assay with B16 [1] was 97%. In the assay on B16 [2], this molecule showed a pIC50 of 5.31.

In the assay on B16 [1], `Cc1ccc(C(C)NNC(N)=S)cc1` (centres undefined) showed an inhibition at 10 µM of 61%. The negative-log IC50 (pIC50) in the assay with B16 [2] is 5.09.

Take `CC/C(=N\N=C(\N)S)c1ccc(Cl)cc1`: in the assay on B16 [1], the inhibition at 10 µM is over 100%. This molecule gave a pIC50 with B16 [2] of 5.54.

With `CC(NNC(N)=S)c1ccccc1` (centres undefined), the inhibition at 10 µM with B16 [1] is 36%. In the assay on B16 [2], this molecule gave a pIC50 of under 4.52.

These data come from ChEMBL document CHEMBL1777713, “Ketonethiosemicarbazones: structure-activity relationships for their melanogenesis inhibition” (Bioorg Med Chem Lett, 2011).
